Values quoted from earlier work in patent US20070003613A1, “Preparations to support maintenance of acid-alkaline balance in the human body and methods directed to using same” (priority 2005, published 2007).

Conditions: second dissociation

pH at which the second H+ ion is liberated: 9.6
SMILES: NCC(=O)O [glycine]
